Reference: PubChem BioAssay (NCI)
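Protocol summary: plate cells (96-well), add compound at 5 concentrations, incubate 48 h, interpolate endpoints linearly. TGI denotes the concentration required for complete inhibition of growth.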

Tests used:
Test in all cases: NCI-60 cell line screen, 48 h
UACC-62 melanoma = test system: UACC-62 melanoma
KM20L2 colon = test system: KM20L2 colon
RPMI-8226 leukemia = test system: RPMI-8226 leukemia
HOP-62 NSCLC = test system: HOP-62 NSCLC
KM12 colon = test system: KM12 colon
SNB-75 CNS = test system: SNB-75 CNS
LXFL 529 NSCLC = test system: LXFL 529 NSCLC
OVCAR-8 ovarian = test system: OVCAR-8 ovarian
SNB-78 CNS = test system: SNB-78 CNS
SF-539 CNS = test system: SF-539 CNS
COLO 205 colon = test system: COLO 205 colon
DMS 114 small cell lung = test system: DMS 114 small cell lung
SF-295 CNS = test system: SF-295 CNS
UO-31 renal = test system: UO-31 renal
U251 CNS = test system: U251 CNS
MALME-3M melanoma = test system: MALME-3M melanoma
MOLT-4 leukemia = test system: MOLT-4 leukemia
SK-MEL-5 melanoma = test system: SK-MEL-5 melanoma
DLD-1 colon = test system: DLD-1 colon
NCI-H226 lung = test system: NCI-H226 lung
SK-OV-3 ovarian = test system: SK-OV-3 ovarian
ACHN renal = test system: ACHN renal
XF 498 CNS = test system: XF 498 CNS
NCI-H460 lung = test system: NCI-H460 lung
NCI-H522 lung = test system: NCI-H522 lung
OVCAR-5 ovarian = test system: OVCAR-5 ovarian
HCT-15 colon = test system: HCT-15 colon
CAKI-1 renal = test system: CAKI-1 renal
DMS 273 small cell lung = test system: DMS 273 small cell lung
SNB-19 CNS = test system: SNB-19 CNS
SR leukemia = test system: SR leukemia
HT29 colon = test system: HT29 colon
HCT-116 colon = test system: HCT-116 colon
A549 NSCLC = test system: A549 NSCLC
NCI-H23 lung = test system: NCI-H23 lung
SN12C renal = test system: SN12C renal
SF-268 CNS = test system: SF-268 CNS
SK-MEL-2 melanoma = test system: SK-MEL-2 melanoma
TK-10 renal = test system: TK-10 renal
OVCAR-4 ovarian = test system: OVCAR-4 ovarian
EKVX NSCLC = test system: EKVX NSCLC
HOP-92 NSCLC = test system: HOP-92 NSCLC
OVCAR-3 ovarian = test system: OVCAR-3 ovarian
HCC-2998 colon = test system: HCC-2998 colon
786-0 renal = test system: 786-0 renal
K-562 leukemia = test system: K-562 leukemia
CCRF-CEM leukemia = test system: CCRF-CEM leukemia
LOX IMVI melanoma = test system: LOX IMVI melanoma
HOP-18 NSCLC = test system: HOP-18 NSCLC
M14 melanoma = test system: M14 melanoma
SW-620 colon = test system: SW-620 colon
RXF 393 renal = test system: RXF 393 renal
UACC-257 melanoma = test system: UACC-257 melanoma
SK-MEL-28 melanoma = test system: SK-MEL-28 melanoma

Measured: TGI

CC1(C)OC(=O)C(c2cccs2)C(=O)O1
> 100 µM: all assays above
